Experimental data: patent US20240327376A1, “PICOLINAMIDE COMPOUNDS AS SELECTIVE PHD1 INHIBITORS, COMPOSITIONS, AND METHODS OF USE” (Akebia Therapeutics, Inc., priority 2021, published 2024)

Target: T1, full-length human PHD1 (selectivity versus full-length human PHD2) (Homo sapiens, UniProt Q96KS0)
T1 construct: purchased Active Motif (Carlsbad, CA, USA) 81064; host or cells: baculovirus expression system
Assay: TR-FRET assay of PHD enzymes (IC50; Ki by Cheng-Prusoff; selectivity as ratio of Kis)
Type: biochemical
Settings: ratio of Kis in the PHD1 and PHD2 TR-FRET assays; Ki=IC50/(1+[2-OG]/Km), 1 uM 2-OG
Source text: Time-resolved fluorescence resonance energy transfer (TR-FRET) assay was utilized to determine the enzymatic half maximal inhibitory concentration (IC50) value of PHD inhibitors against the full-length human prolyl-4-hydroxylase domain (PHD) enzymes, PHD1 and PHD2. The TR-FRET assay was developed based on the specific binding of hydroxylated HIF-1α peptide with the complex formed by VHL, EloB and EloC (VBC), to generate a fluorescent signal. Terbium (Tb)-Donor (monoclonal antibody anti-6His-Tb-cryptate Gold) and D2-acceptor (streptavidin [SA]-D2) of TR-FRET are linked to the VBC complex and to HIF-1a peptide, respectively. The VBC complex binds specifically to the HIF-1a peptide when it is hydroxylated, allowing energy transfer from TR-FRET donor to acceptor (FIG. 1).
TR-FRET Reagents. Monoclonal antibody anti-6His-Tb-cryptate Gold (catalog #61HI2TLA) and streptavidin (SA)-D2 (catalog #610SADLA) were purchased from CisBio International (Bedford, MA, USA).
N-terminus biotinylated HIF-1α C35 synthetic peptide representing amino acids 547 to 581 and including the proline 564 PHD2 hydroxylation site was purchased from California Peptide Research (Salt Lake City, UT, USA).
VBC complex. His-tagged recombinant VHL protein, EloB, EloC complex (His-VBC) was supplied by Axxam (Milan, Italy). Recombinant human VHL (National Center for Biotechnology Information [NCBI] accession number NP_00542.1) contained a His tag at the C-terminus of amino acids 55 to 213 and is referred to as VHL-His. VHL-His was co-expressed in E. coli with full-length human EloB (NCBI accession number Q15370.1) and full-length human EloC (NCBI accession number Q15369.1) and purified by affinity chromatography on a nickel-nitrilotriacetic acid (Ni-NTA) column as the His-VBC complex. Purity (˜80%) was assessed by sodium dodecyl sulfate polyacrylamide gel electrophoresis (SDS-PAGE).
PHD1. Recombinant human PHD1 protein (catalog #81064, Lot #24717001) was purchased from Active Motif (Carlsbad, CA, USA). PHD1 was expressed in a baculovirus expression system as the full-length protein (NCBI accession number NP_542770.2) with an N-terminal FLAG tag (molecular weight 44.9 kDa). Purity (>90%) was assessed by SDS-PAGE.
PHD2. The full-length human PHD2 enzyme was produced with a baculovirus infected insect cell (BIIC) expression system by Beryllium (Bedford, MA, USA). The PHD2 construct contained amino acids 1 to 426 of PHD2 (UniProt Knowledgebase[UniProtKB]/Swiss-Prot accession number Q9GZT9.1), and a His tag and a Tobacco Etch Virus (TEV) protease cleavage site at the N-terminus. The construct was expressed in Sf9 insect cells, purified by Ni-NTA column and digested with TEV protease to remove the His tag.
TR-FRET Assay Procedure. PHD inhibitor compound was preincubated with PHD enzyme in a 10 μL reaction volume in white 384-well Optiplate microplates (catalog #6007290, Perkin Elmer, Waltham, MA, USA). For this, 5 μL of PHD inhibitor compound was serially diluted with dilution buffer (50 mM HEPES [4-(2-hydroxyethyl)-1-piperazineethanesulfonic acid] pH 7.5, 50 mM sodium chloride [NaCl], 0.01% Tween-20, 0.01% purified bovine serum albumin [BSA]) and mixed with 5 μL PHD enzyme mix prepared as a 4× concentrate in the dilution buffer containing PHD enzyme (60 nM PHD1, 20 nM PHD2, 140 nM PHD3), 40 μM ferrous ammonium sulfate (FAS), 4 mM sodium (Na) ascorbate. The plates were incubated for 30 minutes at room temperature without rotation.
Five microliters of the VBC/anti-6His-Tb-cryptate Gold mix prepared as a 4× concentrate in dilution buffer containing 20 nM His-VBC, 1.32 nM monoclonal antibody anti-6His-Tb-cryptate Gold was then added. This step was followed immediately by the addition of […] of the HIF-1a C35 substrate mix prepared as a 4× concentrate in the dilution buffer containing 120 nM biotin-labeled HIF-1a C35, 132 nM SA-D2, 4 μM 2-oxoglutarate (2-OG) to reach a final reaction volume of 20 μL. […]

T1 sequence (Q96KS0 whole entry): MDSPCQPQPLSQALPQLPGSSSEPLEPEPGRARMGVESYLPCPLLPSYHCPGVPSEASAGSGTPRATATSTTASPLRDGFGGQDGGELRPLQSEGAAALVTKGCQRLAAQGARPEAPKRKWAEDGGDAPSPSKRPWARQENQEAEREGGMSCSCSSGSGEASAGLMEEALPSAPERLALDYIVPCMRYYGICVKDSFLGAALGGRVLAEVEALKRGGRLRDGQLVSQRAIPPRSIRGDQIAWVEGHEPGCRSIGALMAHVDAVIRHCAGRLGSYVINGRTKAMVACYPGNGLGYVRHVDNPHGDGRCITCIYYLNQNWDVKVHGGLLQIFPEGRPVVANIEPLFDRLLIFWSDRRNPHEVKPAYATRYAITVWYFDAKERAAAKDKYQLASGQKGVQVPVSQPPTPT

| SMILES | Selectivity of PHD1 over PHD2 [fold] |
| --- | --- |
| O=C(NCC1(C(=O)O)CC1)c1ncc(-c2ccc3ccccc3c2)cc1O [Compound 1, 1-((3-hydroxy-5-(naphthalen-2-yl)picolinamido)methyl)cyclopropane-1-carboxylic acid] | ~219 |
| O=C(NCC1(C(=O)O)CCC1)c1ncc(-c2ccc3ccccc3c2)cc1O [Compound 2, 1-((3-hydroxy-5-(naphthalen-2-yl)picolinamido)methyl)cyclobutane-1-carboxylic acid] | ~1258 |
| O=C(NCC1(C(=O)O)CC1)c1ncc(-c2cccc(Cl)c2)cc1O [Compound 3, 1-((5-(3-chlorophenyl)-3-hydroxypicolinamido)methyl)cyclopropane-1-carboxylic acid] | ~338 |
| O=C(NCC1(C(=O)O)CCC1)c1ncc(-c2cccc(Cl)c2)cc1O [Compound 4, 1-((5-(3-chlorophenyl)-3-hydroxypicolinamido)methyl)cyclobutane-1-carboxylic acid] | ~6 |
| O=C(NCC1(C(=O)O)CC1)c1ncc(-c2cnn(-c3ccccc3)c2)cc1O [Compound 5, 1-((3-hydroxy-5-(1-phenyl-1H-pyrazol-4-yl)picolinamido)methyl)cyclopropane-1-carboxylic acid] | ~61 |
| O=C(NC[C@H](O)C(=O)O)c1ncc(-c2cccc(Cl)c2)cc1O [Compound 6, (S)-3-(5-(3-chlorophenyl)-3-hydroxypicolinamido)-2-hydroxypropanoic acid] | ~11 |
| O=C(NC[C@H](O)C(=O)O)c1ncc(-c2ccc3ccccc3c2)cc1O [Compound 7, (S)-2-hydroxy-3-(3-hydroxy-5-(naphthalen-2-yl)picolinamido)propanoic acid] | ~16 |
| O=C(NC[C@@H](O)C(=O)O)c1ncc(-c2ccc3ccccc3c2)cc1O [Compound 8, (R)-2-hydroxy-3-(3-hydroxy-5-(naphthalen-2-yl)picolinamido)propanoic acid] | ~100 |
| O=C(NC[C@@H](O)C(=O)O)c1ncc(-c2cccc(Cl)c2)cc1O [Compound 9, (R)-3-(5-(3-chlorophenyl)-3-hydroxypicolinamido)-2-hydroxypropanoic acid] | ~13 |
| O=C(NC[C@H](O)C(=O)O)c1ncc(-c2cnn(-c3ccccc3)c2)cc1O [Compound 10, (S)-2-hydroxy-3-(3-hydroxy-5-(1-phenyl-1H-pyrazol-4-yl)picolinamido)propanoic acid] | ~29 |
| O=C(NC[C@@H](O)C(=O)O)c1ncc(-c2cnn(-c3ccccc3)c2)cc1O [Compound 11, (R)-2-hydroxy-3-(3-hydroxy-5-(1-phenyl-1H-pyrazol-4-yl)picolinamido)propanoic] | ~42 |
| O=C(NCC1(C(=O)O)CCC1)c1ncc(-c2cnn(-c3ccccc3)c2)cc1O [Compound 12, 1-((3-hydroxy-5-(1-phenyl-1H-pyrazol-4-yl)picolinamido)methyl)cyclobutane-1-carboxylic acid] | ~36 |
| O=C(NCC1(C(=O)O)CCCCC1)c1ncc(-c2cnn(-c3ccccc3)c2)cc1O [Compound 13, 1-((3-hydroxy-5-(1-phenyl-1H-pyrazol-4-yl)picolinamido)methyl)cyclohexane-1-carboxylic acid] | ~2 |
| O=C(NCC1(C(=O)O)CCOCC1)c1ncc(-c2cnn(-c3ccccc3)c2)cc1O [Compound 14, 4-((3-hydroxy-5-(1-phenyl-1H-pyrazol-4-yl)picolinamido)methyl)tetrahydro-2H-pyran-4-carboxylic acid] | ~51 |
| O=C(O)CC1(NC(=O)c2ncc(-c3cnn(-c4ccccc4)c3)cc2O)CC1 [Compound 15, 2-(1-(3-hydroxy-5-(1-phenyl-1H-pyrazol-4-yl)picolinamido)cyclopropyl)acetic acid] | ~10 |
| O=C(O)CC1(NC(=O)c2ncc(-c3cnn(-c4ccccc4)c3)cc2O)CCC1 [Compound 16, 2-(1-(3-hydroxy-5-(1-phenyl-1H-pyrazol-4-yl)picolinamido)cyclobutyl)acetic acid] | ~2 |
| O=C(NCC1(C(=O)O)CCCC1)c1ncc(-c2cnn(-c3ccccc3)c2)cc1O [Compound 17, 1-((3-hydroxy-5-(1-phenyl-1H-pyrazol-4-yl)picolinamido)methyl)cyclopentane-1-carboxylic acid] | ~8 |
